Test results from patent US8518952B2, “6 substituted 2-heterocyclylamino pyrazine compounds as CHK-1 inhibitors” (Pfizer Inc., priority 2008, dated 2013).
Structures can show the parent of a compound that is named as a salt.

molecular target: T1, CHK1 (kinase domain) (Homo sapiens, UniProt O14757); assay: CHK1 Ki determination, spectrophotometric coupled (pyruvate kinase/lactate dehydrogenase) assay; type: biochemical; settings: CHK-1 kinase domain; 150 uM ATP, 125 uM Syntide 2
T1 construct: a solution containing 1 nM of CHK1 (kinase domain)
T1 sequence (O14757 9-265 limits assumed): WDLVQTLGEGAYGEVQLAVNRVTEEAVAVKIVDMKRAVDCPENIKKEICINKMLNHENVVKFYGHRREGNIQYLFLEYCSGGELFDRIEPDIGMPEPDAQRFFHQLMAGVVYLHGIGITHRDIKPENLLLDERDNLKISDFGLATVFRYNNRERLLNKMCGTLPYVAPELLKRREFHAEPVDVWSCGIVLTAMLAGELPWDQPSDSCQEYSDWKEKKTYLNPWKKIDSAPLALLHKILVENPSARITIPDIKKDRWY
Protocol: After 15 min pre-incubation, the enzymatic reaction was initiated by the simultaneous addition of Syntide 2 peptide (125 uM, final concentration) and ATP (150 uM, final concentration). The kinase-catalyzed production of ADP from ATP that accompanied phosphoryl transfer to the substrate Syntide 2 was coupled to the oxidation of NADH through the activities of pyruvate kinase and lactate dehydrogenase. NADH conversion to NAD^+ was monitored by the decrease in absorbance at 340 nm (ε=6.22 cm^−1 mM^−1) using a microplate reader from Molecular Devices Spectormax Plus (Sunnyvale, Calif.) or BMG LABTECH Inc (Offenburg, Germany).
The inhibition of CHK1 was analyzed by fitting the data to the following equation to determine Kiapp:
[formula] where [E]o and [I]o are the active enzyme and inhibitor concentration, respectively; Ki is the inhibition binding constant and Km the Michaelis-Menten constant for ATP; Vi and Vo are the rates of substrate oxidation in the presence of and in the absence of inhibitor, respectively. EC50 Determination (Cellular Assay)
Under the “Ki” column, data entries in the format of “%” are percent inhibition data where no Ki data is available. Data entry under the “EC50” column with an * are data obtained using Mia Paca-2 cells rather than HeLa cells. Data is not available where noted as n/a.

SMILES	Ki
F[C@@H]1CNC[C@@H]1Nc1cncc(-c2cnn3ccccc23)n1 (relative stereo) [Example 45, Cis N-[4-fluoropyrrolidin-3-yl]-6-pyrazolo [1,5-a]pyridin-3-ylpyrazin-2-amine]	585 nM
c1cnn2c(-c3cncc(NC4CCCCNC4)n3)cnc2c1 (stereo not shown) [Example 80, N-(6-imidazo[1,2-b]pyridazin-3-ylpyrazin-2-yl)azepan-3-amine, acetate salt]	1000 nM
F[C@@H]1CNC[C@@H]1Nc1cncc(-c2cnc3cccnn23)n1 [Example 81, N-[(3S,4R)-4-fluoropyrrolidin-3-yl]-6-imidazo[1,2-b]pyridazin-3-ylpyrazin-2-amine, acetate salt]	1000 nM
F[C@@H]1CNC[C@H]1Nc1cncc(-c2cnc3cccnn23)n1 [Example 82, N-[(3R,4R)-4-fluoropyrrolidin-3-yl]-6-imidazo[1,2-b]pyridazin-3-ylpyrazin-2-amine]	1000 nM
C[C@H]1CC[C@@H](Nc2cncc(-c3cnc4cccnn34)n2)CN1 [Example 83, 6-imidazo[1,2-b]pyridazin-3-yl-N-[(3R,6S)-6-methylpiperidin-3-yl]pyrazin-2-amine, acetate salt]	1000 nM
C[C@@H]1CC[C@@H](Nc2cncc(-c3cnc4cccnn34)n2)CN1 [Example 84, 6-imidazo[1,2-b]pyridazin-3-yl-N-[(3R,6R)-6-methylpiperidin-3-yl]pyrazin-2-amine, acetate salt]	1000 nM
C[C@@H]1NCCC[C@H]1Nc1cncc(-c2cnc3ccc(F)cn23)n1 [Example 95, 6-(6-fluoroimidazo[1,2-a]pyridin-3-yl)-N-[(2S,3R)-2-methylpiperidin-3-yl]pyrazin-2-amine]	37.5 nM
Cc1cn2c(-c3cncc(N[C@@H]4CCCN[C@H]4C)n3)cnc2s1 [Example 133, 6-(2-methylimidazo[2,1-b][1,3]thiazol-5-yl)-N-[(2S,3R)-2-methylpiperidin-3-yl]pyrazin-2-amine]	21.4 nM
C[C@H]1NCCC[C@H]1Nc1cncc(-c2cnc3ccc(F)cn23)n1 [Example 164, 6-(6-fluoroimidazo[1,2-a]pyridin-3-yl)-N-[(2R,3R)-2-methylpiperidin-3-yl]pyrazin-2-amine]	18.4 nM
c1ccc2c(c1)ncn2-c1cncc(NC2CCNC2)n1 (stereo not shown) [Example 208, 6-(1H-benzimidazol-1-yl)-N-(pyrrolidin-3-yl)pyrazin-2-amine]	195 nM
COc1ccn2c(-c3cncc(N[C@H]4CNC[C@H]4C4CCCC4)n3)cnc2c1 [Example 210, N-[(3R,4R)-4-cyclopentylpyrrolidin-3-yl]-6-(7-methoxyimidazo[1,2-a]pyridin-3-yl)pyrazin-2-amine]	2.85 nM
N#Cc1ccc2ncc(-c3cncc(N[C@H]4CNC[C@H]4C4CC4)n3)n2c1 [Example 263, 3-(6-{[(3R,4R)-4-cyclopropylpyrrolidin-3-yl]amino}pyrazin-2-yl)imidazo[1,2-a]pyridine-6-carbonitrile]	374 nM
CCOc1cc2ncn(-c3cncc(N[C@H]4CN[C@H](COC)C4)n3)c2cn1 [Example 297, [6-(6-Ethoxy-imidazo[4,5-c]pyridin-3-yl)-pyrazin-2-yl]-((3R,5S)-5-methoxymethyl-pyrrolidin-3-yl)-amine]	105 nM
CCOc1cc2ncn(-c3cncc(N[C@H]4CNCC[C@@H]4OC)n3)c2cn1 [Example 298, [6-(6-Ethoxy-imidazo[4,5-c]pyridin-3-yl)-pyrazin-2-yl]-((3S,4S)-4-methoxy-piperidin-3-yl)-amine]	5.27 nM
c1cc2c(-c3cncc(N[C@@H]4CCCNC4)n3)cnn2cn1 [Example 299, (R)-Piperidin-3-yl-(6-pyrazolo[1,5-c]pyrimidin-3-yl-pyrazin-2-yl)-amine]	4.11 nM

same assay, conditions: CHK-1 kinase domain; inhibitor concentration not given

SMILES	percent inhibition (where no Ki data is available)
c1ccn2c(-c3cncc(N[C@@H]4CCCNC4)n3)nnc2c1 [Example 8, N-[(3R)-piperidin-3-yl]-6-[1,2,4]triazolo[4,3-a]pyridin-3-ylpyrazin-2-amine]	16.7%^
Cc1cccc2ncc(-c3cncc(N[C@@H]4CCNC4)n3)n12 [Example 58, 6-(5-Methylimidazo[1,2-a]pyridin-3-yl)-N-[(3R)-pyrrolidin-3-yl]pyrazin-2-amine]	0%
c1ccc2c(c1)ncn2-c1cncc(N[C@H]2CCCNC2)n1 [Example 63, 6-(1H-benzimidazol-1-yl)-N-[(3S)-piperidin-3-yl]pyrazin-2-amine]	35.5%^
Cc1ncc(-c2cncc(N[C@@H]3CC[C@@H](C)NC3)n2)n1Cc1ccccc1 [Example 68, 6-(1-benzyl-2-methyl-1H-imidazol-5-yl)-N-[(3R,6R)-6-methylpiperidin-3-yl]pyrazin-2-amine]	0%
Cc1ncc(-c2cncc(NC3CCCCNC3)n2)n1C (stereo not shown) [Example 69, N-[6-(1,2-dimethyl-1H-imidazol-5-yl)pyrazin-2-yl]azepan-3-amine]	0.60%^
Cc1ncc(-c2cncc(N[C@@H]3CC[C@H](C)NC3)n2)n1C [Example 70, 6-(1,2-dimethyl-1H-imidazol-5-yl)-N-[(3R,6S)-6-methylpiperidin-3-yl]pyrazin-2-amine]	0%
Cc1ncc(-c2cncc(N[C@@H]3CC[C@@H](C)NC3)n2)n1C [Example 71, 6-(1,2-dimethyl-1H-imidazol-5-yl)-N-[(3R,6R)-6-methylpiperidin-3-yl]pyrazin-2-amine]	0%
Cc1ncc(-c2cncc(N[C@@H]3CCCNC3)n2)n1Cc1ccccc1 [Example 72, 6-(1-benzyl-2-methyl-1H-imidazol-5-yl)-N-[(3R)-piperidin-3-yl]pyrazin-2-amine]	1.4%^
Cc1ncc(-c2cncc(N[C@@H]3CCNC3)n2)n1C [Example 73, 6-(1,2-dimethyl-1H-imidazol-5-yl)-N-[(3R)-pyrrolidin-3-yl]pyrazin-2-amine]	0%
Cc1ncc(-c2cncc(NC3CCCCNC3)n2)n1Cc1ccccc1 (stereo not shown) [Example 74, N-[6-(1-benzyl-2-methyl-1H-imidazol-5-yl)pyrazin-2-yl]azepan-3-amine]	5.8%^
Cc1ncc(-c2cncc(N[C@@H]3CCNC3)n2)n1Cc1ccccc1 [Example 75, 6-(1-benzyl-2-methyl-1H-imidazol-5-yl)-N-[(3R)-pyrrolidin-3-yl]pyrazin-2-amine]	6.7%^
Cc1ncc(-c2cncc(N[C@@H]3CNC[C@@H]3F)n2)n1C [Example 76, 6-(1,2-dimethyl-1H-imidazol-5-yl)-N-[(3R,4S)-4-fluoropyrrolidin-3-yl]pyrazin-2-amine]	1.6%^
Cc1ncc(-c2cncc(N[C@H]3CNC[C@@H]3F)n2)n1C [Example 77, 6-(1,2-dimethyl-1H-imidazol-5-yl)-N-[(3S,4S)-4-fluoropyrrolidin-3-yl]pyrazin-2-amine]	0%
C[C@@H]1NCCC[C@H]1Nc1cncc(-c2cnc3ccccn23)n1 [Example 131, 6-imidazo[1,2-a]pyridin-3-yl-N-[(2S,3R)-2-methylpiperidin-3-yl]pyrazin-2-amine]	0%
Cc1nc2ccccn2c1-c1cncc(N[C@@H]2CCCNC2)n1 [Example 153, 6-(2-methylimidazo[1,2-a]pyridin-3-yl)-N-[(3R)-piperidin-3-yl]pyrazin-2-amine]	2.2%^
Cc1cn2c(-c3cncc(N[C@H]4CCCN[C@@H]4C)n3)cnc2s1 [Example 177, 6-(2-methylimidazo[2,1-b][1,3]thiazol-5-yl)-N-[(2R,3S)-2-methylpiperidin-3-yl]pyrazin-2-amine]	49.1%^
FC[C@@H]1CNC[C@@H]1Nc1cncc(-c2cnc3sccn23)n1 [Example 182, N-[(3R,4R)-4-(fluoromethyl)pyrrolidin-3-yl]-6-(imidazo[2,1-b][1,3]thiazol-5-yl)pyrazin-2-amine]	98.9%^
Cc1cccn2c(-c3cncc(N[C@@H]4CCCNC4)n3)cnc12 [Example 207, 6-(8-methylimidazo[1,2-a]pyridin-3-yl)-N-[(3R)-piperidin-3-yl]pyrazin-2-amine]	21%
c1cc2ncn(-c3cncc(N[C@@H]4CCNC4)n3)c2cc1OCC1CC1 [Example 220, 6-[6-(cyclopropylmethoxy)-1H-benzimidazol-1-yl]-N-[(3R)-pyrrolidin-3-yl]pyrazin-2-amine]	17.9%^
